Data from paper PMC5038320, “Cryptosporidium and Toxoplasma Parasites Are Inhibited by a Benzoxaborole Targeting Leucyl-tRNA Synthetase” (Antimicrobial Agents and Chemotherapy, 2016).
Like-named read-outs stand apart in the source and are kept apart here.

Experiments:
[1] = biological target: T1, C. muris cytosolic leucyl-tRNA synthetase (CmLeuRS) editing domain (Cryptosporidium muris, UniProt B6AA20); test: ITC; crystal structure ([…] Å); type: binding
T1 construct: gene CMU_041310; connective polypeptide domain (CP1) residues 254 to 541
T1 sequence (B6AA20 entry or part of it): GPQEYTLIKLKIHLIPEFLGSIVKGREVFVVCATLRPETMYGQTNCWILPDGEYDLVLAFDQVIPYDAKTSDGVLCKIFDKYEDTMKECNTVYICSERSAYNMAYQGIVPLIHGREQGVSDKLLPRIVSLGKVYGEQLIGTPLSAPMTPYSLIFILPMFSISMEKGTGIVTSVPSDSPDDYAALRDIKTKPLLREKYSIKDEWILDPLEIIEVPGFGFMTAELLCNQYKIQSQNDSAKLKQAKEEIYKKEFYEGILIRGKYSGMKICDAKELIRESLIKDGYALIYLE

[2] = biological target: T1, C. muris cytosolic leucyl-tRNA synthetase (CmLeuRS) editing domain; test: ITC; crystal structure ([…] Å); type: binding; remark: listed apart in the source

SMILES | Kd [1] [µM] | Kd [2] [µM]
CCC[C@H](N)C(=O)N[C@@H]1[C@H](O)[C@@H](CO)O[C@H]1n1cnc2c(N)ncnc21 [Nva2AA, 2-(L-norvalyl)amino-2-deoxyadenosine] | 213 | 
CC[C@H](C)[C@H](N)C(=O)N[C@@H]1[C@H](O)[C@@H](CO)O[C@H]1n1cnc2c(N)ncnc21 [Ile2AA, 2-(L-isoleucyl)amino-2-deoxyadenosine] |  | 215
